Data reported in US20210277015A1, “OGA INHIBITOR COMPOUNDS” (Janssen Pharmaceutica NV, priority 2018, published 2021).

Molecular target: T1, recombinant human Meningioma Expressed Antigen 5 (MGEA5), also referred to as O-GlcNAcase (OGA) (Homo sapiens, UniProt O60502)
T1 construct: Full length OGA enzyme was purchased at OriGene (cat #TP322411); purchased OriGene TP322411
T1 sequence (O60502 1-916): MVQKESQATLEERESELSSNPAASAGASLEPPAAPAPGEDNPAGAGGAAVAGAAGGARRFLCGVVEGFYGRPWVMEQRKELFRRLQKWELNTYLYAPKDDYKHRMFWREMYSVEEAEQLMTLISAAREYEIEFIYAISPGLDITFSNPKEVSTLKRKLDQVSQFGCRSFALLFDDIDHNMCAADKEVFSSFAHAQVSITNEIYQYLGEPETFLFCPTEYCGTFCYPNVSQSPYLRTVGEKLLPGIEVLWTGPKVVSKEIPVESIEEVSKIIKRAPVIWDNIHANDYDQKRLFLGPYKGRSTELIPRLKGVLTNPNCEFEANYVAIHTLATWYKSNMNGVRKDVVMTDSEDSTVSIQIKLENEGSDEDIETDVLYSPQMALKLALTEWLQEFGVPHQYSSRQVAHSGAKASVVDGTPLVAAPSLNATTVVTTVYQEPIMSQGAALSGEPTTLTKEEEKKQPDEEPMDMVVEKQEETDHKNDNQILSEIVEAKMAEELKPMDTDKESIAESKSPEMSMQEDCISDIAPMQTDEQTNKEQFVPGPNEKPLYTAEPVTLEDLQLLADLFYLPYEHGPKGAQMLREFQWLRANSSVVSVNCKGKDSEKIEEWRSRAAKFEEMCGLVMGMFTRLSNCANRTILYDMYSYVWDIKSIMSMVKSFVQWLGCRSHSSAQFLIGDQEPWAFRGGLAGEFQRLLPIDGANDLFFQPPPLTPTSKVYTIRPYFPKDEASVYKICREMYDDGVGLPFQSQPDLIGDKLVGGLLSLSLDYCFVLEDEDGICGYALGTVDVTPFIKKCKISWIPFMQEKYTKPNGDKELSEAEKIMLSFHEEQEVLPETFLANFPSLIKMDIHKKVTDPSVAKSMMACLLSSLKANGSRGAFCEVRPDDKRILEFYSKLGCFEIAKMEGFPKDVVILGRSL
Experiment: OGA biochemical assay (inhibition of FM-GlcNAc hydrolysis, fluorescence)
Conditions: FM-GlcNAc substrate; for IC50: 6 h at room temperature, read-out: Enzymatic hOGA, pIC50 (converted); for Emax / Enzymatic Emax (%): maximal effect; for Emax: read-out: Enzymatic Emax (%)
Description: The assay is based on the inhibition of the hydrolysis of fluorescein mono-β-D-N-Acetyl-Glucosamine (FM-GlcNAc) (Mariappa et al. 2015, Biochem J 470:255) by the recombinant human Meningioma Expressed Antigen 5 (MGEA5), also referred to as O-GlcNAcase (OGA). The hydrolysis FM-GlcNAc (Marker Gene technologies, cat #M1485) results in the formation of β-D-N-glucosamineacetate and fluorescein. The fluorescence of the latter can be measured at excitation wavelength 485 nm and emission wavelength 538 nm. An increase in enzyme activity results in an increase in fluorescence signal. Full length OGA enzyme was purchased at OriGene (cat #TP322411). The enzyme was stored in 25 mM Tris.HCl, pH 7.3, 100 mM glycine, 10% glycerol at −20° C. Thiamet G and GlcNAcStatin were tested as reference compounds (Yuzwa et al. 2008 Nature Chemical Biology 4:483; Yuzwa et al. 2012 Nature Chemical Biology 8:393). The assay was performed in 200 mM Citrate/phosphate buffer supplemented with 0.005% Tween-20. 35.6 g Na2HPO4 2 H2O (Sigma, #C0759) were dissolved in 1 L water to obtain a 200 mM solution. 19.2 g citric acid (Merck, #1.06580) was dissolved in 1 L water to obtain a 100 mM solution. pH of the sodium phosphate solution was adjusted with the citric acid solution to 7.2. The buffer to stop the reaction consists of a 500 mM Carbonate buffer, pH 11.0. 734 mg FM-GlcNAc were dissolved in 5.48 mL DMSO to obtain a 250 mM solution and was stored at −20° C. OGA was used at a 2 nM concentration and FM-GlcNAc at a 100 uM final concentration. Dilutions were prepared in assay buffer.
50 nl of a compound dissolved in DMSO was dispensed on Black Proxiplate™ 384 Plus Assay plates (Perkin Elmer, #6008269) and 3 μl fl-OGA enzyme mix added subsequently. Plates were pre-incubated for 60 min at room temperature and then 2 μl FM-GlcNAc substrate mix added. […] Plates were briefly centrifuged for 1 min at 1000 rpm and incubate at room temperature for 6 h. To stop the reaction 5 μl STOP buffer were added and plates centrifuge again 1 min at 1000 rpm. Fluorescence was quantified in the Thermo Scientific Fluoroskan Ascent or the PerkinElmer EnVision with excitation wavelength 485 nm and emission wavelength 538 nm.
For analysis a best-fit curve is fitted by a minimum sum of squares method. From this an IC50 value and Hill coefficient was obtained. High control (no inhibitor) and low control (saturating concentrations of standard inhibitor) were used to define the minimum and maximum values.

| Structure (SMILES) | IC50 | Emax | Enzymatic Emax (%) |
| --- | --- | --- | --- |
| COc1cc(O[C@@H]2CCN(C(C)c3ccc4c(n3)OCCO4)C2)cc(C)n1 (mixture of isomers) [Product 76] | 1580 nM | 84% | – |
| COc1cc(CC2(C)CCN(C(C)c3ccc4c(n3)OCCO4)C2)cc(C)n1 (mixture of isomers) [Product 91] | 158 nM | 100% | – |
| Cc1cnc(C[C@H]2CCN(C(C)c3cc4c(cc3F)OCCO4)C2)c(C)n1 (mixture of isomers) [Product 96] | 63.1 nM | 101% | – |
| Cc1cc(O[C@H]2CCN(C(C)c3ccc4c(n3)OCCO4)C2)cc(C)n1 (mixture of isomers) [Product 70] | 1260 nM | 94% | – |
| Cc1cc(C[C@@H]2CCN(C(C)c3ccc4c(n3)OCCO4)C2)cc(C)n1 (mixture of isomers) [Product 78] | 63.1 nM | 101% | – |
| COc1cc(C[C@H]2CCN([C@H](C)c3cc4c(cc3F)NCCO4)C2)cc(C)n1 (racemic) [Product 81] | 794 nM | 92% | – |
| COc1cc(C[C@@H]2CCN(C(C)c3ccc4c(n3)OCCO4)C2)cc(C)n1 (mixture of isomers) [Product 89] | 100 nM | 100% | – |
| Cc1cc(C[C@H]2CCN([C@H](C)c3ccc4c(c3)OCC4)C2)cc(C)n1 (single isomer, unassigned) [Product 13] | 1000 nM | 91% | – |
| C[C@H](c1ccc2c(n1)OCCO2)N1CC[C@H](Cc2ncc(F)cc2F)C1 (single isomer, unassigned) [Product 22] | > 10000 nM | 32% | – |
| CC(c1ccc2c(n1)OCCO2)N1CC[C@H](Cc2ncc(F)cc2F)C1 (single isomer, unassigned) [Product 23] | 398 nM | 97% | – |
| Cc1cnc(C[C@H]2CCN(C(C)c3ccc4c(n3)OCCO4)C2)c(C)n1 (single isomer, unassigned) [Product 25] | 158 nM | – | 100% |
| Cc1cnc(C[C@H]2CCN(C(C)c3ccc4c(n3)OCCO4)C2)c(C)n1 (single isomer, unassigned) [Product 26] | > 10000 nM | – | 35% |
| CC(c1cc2c(cc1F)OCCO2)N1CC[C@H](Cc2ncc(F)cc2F)C1 (single isomer, unassigned) [Product 28] | 5010 nM | – | 67% |
| COc1cc(O[C@H]2CCN(C(C)c3ccc4c(n3)OCCO4)C2)cc(C)n1 (single isomer, unassigned) [Product 64] | 398 nM | 99% | – |
| COc1cc(C[C@H]2CCN(C(C)c3nc4c(cc3F)CCO4)C2)cc(C)n1 (single isomer, unassigned) [Product 85] | 200 nM | – | 99% |
| COc1cc(C[C@H]2CCN(C(C)c3ccc4c(n3)OCCC4)C2)cc(C)n1 (single isomer, unassigned) [Product 87] | 126 nM | – | 99% |
| COc1cc(C[C@H]2CCN(C(C)c3ccc4c(n3)OCCC4)C2)cc(C)n1 (single isomer, unassigned) [Product 88] | > 10000 nM | – | 38% |
| COc1cc(C[C@]2(C)CCN([C@H](C)c3ccc4c(n3)OCCO4)C2)cc(C)n1 (single isomer, unassigned) [Product 92] | 6310 nM | 63% | – |
| COc1cc(C[C@]2(C)CCN([C@@H](C)c3ccc4c(n3)OCCO4)C2)cc(C)n1 (single isomer, unassigned) [Product 93] | 7940 nM | 55% | – |
| COc1cc(C[C@@]2(C)CCN([C@H](C)c3ccc4c(n3)OCCO4)C2)cc(C)n1 (single isomer, unassigned) [Product 94] | 1000 nM | 93% | – |

| Structure (SMILES) | IC50 | Emax | Enzymatic Emax (%) |
| --- | --- | --- | --- |
| Cc1cnc(C[C@H]2CCN(C(C)c3cc4c(cc3F)OCCO4)C2)c(C)n1 (single isomer, unassigned) [Product 97] | > 10000 nM | – | 37% |
| Cc1cnc(C[C@H]2CCN(C(C)c3cc4c(cc3F)OCCO4)C2)c(C)n1 (single isomer, unassigned) [Product 98] | 31.6 nM | – | 103% |
| Cc1cc(C[C@H]2CCN(C(C)c3ccc4c(c3)OCCN4C)C2)cc(C)n1 (stereo partly drawn) [Product 1] | 2000 nM | 85% | – |
| Cc1cc(C[C@H]2CCN(Cc3ccc4c(c3)OCCN4C)C2)cc(C)n1 [Product 2] | 6170 nM | 61% | – |
| Cc1cc(C2CCN(C(C)c3ccc4c(n3)OCCO4)C2)cc(C)n1 (stereo not drawn) [Product 3] | 501 nM | 99% | – |
| COc1cc(C[C@H]2CCN(C(C)c3ccc4c(n3)OCCO4)C2)cc(C(F)(F)F)n1 (stereo partly drawn) [Product 4] | 100 nM | 103% | – |
| Cc1cc(C[C@H]2CCN(C(C)c3ccc4c(n3)OCCO4)C2)cc(C)n1 (stereo partly drawn) [Product 12] | 158 nM | 101% | – |
| CC(c1ccc2c(n1)OCCO2)N1CC[C@H](Cc2ncc(F)cc2F)C1 (stereo partly drawn) [Product 21] | 631 nM | 94% | – |
| Cc1cnc(C[C@H]2CCN(C(C)c3ccc4c(n3)OCCO4)C2)c(C)n1 (stereo partly drawn) [Product 24] | 251 nM | 101% | – |
| CC(c1cc2c(cc1F)OCCO2)N1CC[C@H](Cc2ncc(F)cc2F)C1 (stereo partly drawn) [Product 27] | 126 nM | 102% | – |
| Cc1cc(C[C@H]2CCN(C(C)c3cc4c(cc3F)OCCO4)C2)cc(C)n1 (stereo partly drawn) [Product 30] | 20 nM | 102% | – |
| Cc1cc(C[C@H]2CCN([C@H](C)c3cc4c(cc3F)OCCO4)C2)cc(C)n1 [Product 31] | 631 nM | 96% | – |
| COc1cc(C[C@H]2CCN(C(C)c3cnc4c(c3)C(=O)N(C)CC4)C2)cc(C)n1 (stereo partly drawn) [Product 33] | 126 nM | 102% | – |
| COc1cc(C[C@H]2CCN([C@H](C)c3cnc4c(c3)C(=O)N(C)CC4)C2)cc(C)n1 [Product 34] | 7940 nM | 58% | – |
| COc1cc(C[C@@H]2CCN([C@H](C)c3cc4c(cc3F)OCCO4)C2)cc(C)n1 [Product 42] | 1000 nM | 93% | – |
| Cc1cc(C[C@@H]2CCN([C@H](C)c3cc4c(cc3F)OCCO4)C2)cc(C)n1 [Product 44] | 251 nM | 99% | – |
| Cc1cc(OC[C@@H]2CCN(C(C)c3ccc4c(n3)OCCO4)C2)cc(C)n1 (stereo partly drawn) [Product 46] | 251 nM | 97% | – |
| COc1cc(O[C@H]2CCN(C(C)c3ccc4c(n3)OCCO4)C2)cc(C)n1 (stereo partly drawn) [Product 63] | 1000 nM | 95% | – |
| Cc1cc(OCC2(C)CCN(C(C)c3ccc4c(n3)OCCO4)C2)cc(C)n1 (stereo not drawn) [Product 77] | 794 nM | 94% | – |
